From US20150329558A1, “FUSED HETEROCYCLIC COMPOUNDS AS ION CHANNEL MODULATORS” (Gilead Sciences, Inc., priority 2011, published 2015)
Where two headings read alike, the source gives them in different places.

Assays:
[1] = target: wild-type human cardiac sodium channel, hNav1.5 (peak INa) (Homo sapiens, UniProt Q14524); assay: Peak INa screening assay (tonic and use-dependent block); format: cell-based
In short: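 Whole-cell automated patch clamp, HEK293 stably expressing hNav1.5 alpha without beta subunits, 23-25° C, holding −100 mV; bath Na⁺ reduced to 20 mM, CsF-based intracellular pH 7.4. Test compound 1 μM; tonic block at 0.1 Hz, use-dependent block at 3 Hz, % peak block after rundown correction.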

anesthetized rabbits = assay: Ischemia-induced ST segment elevation in anesthetized rabbits; format: in vivo; conditions: rabbit; for area under curve (AUC) for the ST segment height reduced (vs. control): 15 min LAD ischemia, iv bolus
Protocol: This study was undertaken to determine the anti-ischemic effects of compounds of the present invention in an in vivo rabbit model.
Female New Zealand rabbits (3.0-4.0 kg) were purchased from Western Oregon Rabbitry. Animals were housed on a 12-h light and dark cycle and received standard laboratory chow and water. All experiments were performed in accordance with the Guide for the Care and Use of Laboratory Animals published by The National Research Council and with the experimental protocol approved by the Institutional Animal Care Committee of Gilead Sciences, Inc.
Rabbits were anesthetized with ketamine (35 mg/kg) and xylazine (5 mg/kg) intramuscular injection (im). A tracheotomy was performed and the trachea was intubated with an endotracheal tube. The animal was ventilated with room air supplemented with oxygen using a pressure control animal ventilator (Kent Scientific Corp., Torrington, Conn.) at a respiratory rate of 40 strokes/min and peak inspiration pressure of 10 mmH2O, which was adjusted to keep blood gases and pH within the physiological range (iSTAT clinic analyzer, Heska Corp.; Waukesha, Wis.). The left femoral artery was cannulated for the measurement of blood pressure (BP). Blood samples were also withdrawn from femoral artery. The right external jugular vein was cannulated for drug/vehicle administration. Needle electrodes were inserted subcutaneously into the limbs for recording of the surface electrocardiogram (ECG). The heart was exposed via an incision in the 4th intercostal space (4th and/or 5th ribs were cut for a clear surgical vision). The chest was opened and a pericardial cradle was formed using 4 retractors. A coronary artery occluder, comprised of a snare made of 5 cm PE-10 tubing with a 6-0 Prolene polypropylene suture in it, was placed loosely around the left anterior descending artery (LAD) at its origin. Two unipolar electrodes, made with teflon coated silver wire attached to a small patch of filter paper, were attached on the surface of the ischemic and normal regions of the left ventricle to record epicardial electrocardiogram. Reference electrodes were placed in the open incision of the neck. The body temperature of the animal was monitored via a rectal thermometer and maintained at 37-40° C. by adjusting the surface temperature of the surgical table. Regional ischemia (15 min) was induced by ligating the LAD followed by 15 min of reperfusion caused by releasing the ligation. The heart was excised at the end of the experiment and the LAD was re-ligated. The ischemic area was visualized by perfusing the heart with 1% Evans blue in saline and calculated as a percentage of total ventricular weight. Rabbits with ischemic area less than 10% or larger than 25% were excluded from the analysis. […]

[2] = % inhibition at 1 μM, tonic block, read-out: NAv1.5*-PEAK-TB-
[3] = % inhibition at 1 μM, use-dependent block 3 Hz, read-out: NAv1.5*-PEAK-UDB-3 HZ-
[4] = tonic block of peak INa, 0.1 Hz, 1 μM, read-out: Peak TB 1 μM
[5] = use-dependent block of peak INa, 3 Hz, 1 μM, read-out: Peak UDB 1 μM

Sequence of wild-type human cardiac sodium channel, hNav1.5 (peak INa) (Q14524 whole entry): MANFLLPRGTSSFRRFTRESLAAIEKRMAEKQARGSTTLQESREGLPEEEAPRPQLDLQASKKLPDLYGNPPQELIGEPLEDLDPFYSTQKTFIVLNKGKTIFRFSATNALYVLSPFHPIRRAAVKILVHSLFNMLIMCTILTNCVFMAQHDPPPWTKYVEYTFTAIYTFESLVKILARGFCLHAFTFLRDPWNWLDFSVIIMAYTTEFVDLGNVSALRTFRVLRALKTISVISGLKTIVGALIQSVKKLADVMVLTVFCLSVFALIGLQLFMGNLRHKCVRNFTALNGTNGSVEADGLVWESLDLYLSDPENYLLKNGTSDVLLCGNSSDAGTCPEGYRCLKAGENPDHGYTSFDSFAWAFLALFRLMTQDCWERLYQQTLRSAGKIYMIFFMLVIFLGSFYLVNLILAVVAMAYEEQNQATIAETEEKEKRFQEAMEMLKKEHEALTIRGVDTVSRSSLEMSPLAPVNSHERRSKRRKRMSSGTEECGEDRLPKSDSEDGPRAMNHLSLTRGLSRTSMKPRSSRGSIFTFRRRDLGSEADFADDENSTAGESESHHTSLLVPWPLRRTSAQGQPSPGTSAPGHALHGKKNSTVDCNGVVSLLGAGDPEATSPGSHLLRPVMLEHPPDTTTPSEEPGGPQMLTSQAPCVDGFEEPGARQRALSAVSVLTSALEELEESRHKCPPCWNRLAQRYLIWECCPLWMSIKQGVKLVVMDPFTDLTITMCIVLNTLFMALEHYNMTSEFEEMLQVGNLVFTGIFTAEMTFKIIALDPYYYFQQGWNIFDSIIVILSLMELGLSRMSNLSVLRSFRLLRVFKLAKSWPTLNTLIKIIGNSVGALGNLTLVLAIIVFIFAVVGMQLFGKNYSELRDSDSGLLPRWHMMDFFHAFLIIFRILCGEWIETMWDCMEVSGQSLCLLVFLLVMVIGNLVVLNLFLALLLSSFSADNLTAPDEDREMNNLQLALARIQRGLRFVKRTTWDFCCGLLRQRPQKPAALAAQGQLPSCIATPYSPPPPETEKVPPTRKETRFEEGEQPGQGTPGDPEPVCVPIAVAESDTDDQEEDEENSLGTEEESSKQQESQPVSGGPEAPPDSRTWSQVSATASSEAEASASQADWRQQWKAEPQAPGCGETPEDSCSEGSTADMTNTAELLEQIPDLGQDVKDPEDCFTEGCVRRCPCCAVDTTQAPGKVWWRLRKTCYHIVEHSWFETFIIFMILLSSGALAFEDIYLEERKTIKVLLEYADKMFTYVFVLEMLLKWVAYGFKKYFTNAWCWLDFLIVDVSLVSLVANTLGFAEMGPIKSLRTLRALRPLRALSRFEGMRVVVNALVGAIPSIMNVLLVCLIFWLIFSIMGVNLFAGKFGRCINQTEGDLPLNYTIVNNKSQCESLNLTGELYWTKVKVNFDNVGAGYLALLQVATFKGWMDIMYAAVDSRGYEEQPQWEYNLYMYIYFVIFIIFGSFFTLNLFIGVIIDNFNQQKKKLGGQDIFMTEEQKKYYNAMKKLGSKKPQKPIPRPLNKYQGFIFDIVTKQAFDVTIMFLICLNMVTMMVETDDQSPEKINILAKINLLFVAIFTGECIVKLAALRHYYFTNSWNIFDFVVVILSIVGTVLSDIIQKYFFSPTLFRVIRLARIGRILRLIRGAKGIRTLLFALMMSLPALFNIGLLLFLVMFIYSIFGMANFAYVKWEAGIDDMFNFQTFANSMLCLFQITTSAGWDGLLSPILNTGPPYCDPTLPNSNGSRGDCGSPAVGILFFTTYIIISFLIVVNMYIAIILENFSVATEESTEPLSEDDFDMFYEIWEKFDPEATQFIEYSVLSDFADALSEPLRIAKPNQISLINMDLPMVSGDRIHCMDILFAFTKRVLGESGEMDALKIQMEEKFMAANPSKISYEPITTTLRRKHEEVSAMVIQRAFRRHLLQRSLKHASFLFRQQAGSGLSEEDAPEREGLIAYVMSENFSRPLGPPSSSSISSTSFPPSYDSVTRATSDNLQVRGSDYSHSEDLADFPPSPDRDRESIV

Q: `N#Cc1ccnc(OCCn2nnc3ccc(-c4ccc(OC(F)(F)F)cc4)cc3c2=O)n1` [II-36, 2-(2-(4-oxo-6-(4-(trifluoromethoxy)phenyl)benzo[d][1,2,3]triazin-3(4H)-yl)ethoxy)pyrimidine-4-carbonitrile] was tested. Which inhibition at 1 µM [1, 2] did it give?
A: 7%

Q: And the inhibition at 1 µM [1, 3]?
A: 8%

Q: And the inhibition at 1 µM [1, 4]?
A: 7%

Q: And the inhibition at 1 µM [1, 5]?
A: 8%

Q: With `O=c1c2cc(-c3ccc(OC(F)(F)F)cc3)ccc2nnn1CCOc1ncccn1` [II-32, 3-(2-(pyrimidin-2-yloxy)ethyl)-6-(4-(trifluoromethoxy)phenyl)benzo[d][1,2,3]triazin-4(3H)-one] as the compound, how does the inhibition at 1 µM [1, 2] read?
A: 16%

Q: What about the inhibition at 1 µM [1, 3] of the same compound?
A: 21%

Q: And the inhibition at 1 µM [1, 4]?
A: 16%

Q: What about the inhibition at 1 µM [1, 5] of the same compound?
A: 21%

Q: Which inhibition at 1 µM [1, 2] does the source give for `Cc1noc(Cn2cnc3ccc(-c4ccc(OC(F)(F)F)cc4)cc3c2=O)n1` [IV-6, 3-((3-methyl-1,2,4-oxadiazol-5-yl)methyl)-6-(4-(trifluoromethoxy)phenyl)quinazolin-4(3H)-one] here?
A: 12%

Q: And the inhibition at 1 µM [1, 3]?
A: 7%

Q: What about the inhibition at 1 µM [1, 4] of the same compound?
A: 12%

Q: What about the inhibition at 1 µM [1, 5] of the same compound?
A: 7%

Q: Which results are given for `O=C1c2cc(-c3ccc(OC(F)(F)F)cc3)ccc2OCN1Cc1ccccn1` [VIII-3, 3-(pyridin-2-ylmethyl)-6-(4-(trifluoromethoxy)phenyl)-2H-benzo[e][1,3]oxazin-4(3H)-one]?
A: inhibition at 1 µM [1, 2]: 21%; inhibition at 1 µM [1, 3]: 12%; inhibition at 1 µM [1, 4]: 21%; inhibition at 1 µM [1, 5]: 12%

Q: What does the source list for `O=c1c2cc(-c3ccc(OC(F)(F)F)cc3)ccc2nnn1Cc1nnc(C2CC2)o1` [II-67, 3-((5-cyclopropyl-1,3,4-oxadiazol-2-yl)methyl)-6-(4-(trifluoromethoxy)phenyl)benzo[d][1,2,3]triazin-4(3H)-one]?
A: inhibition at 1 µM [1, 2]: 12%; inhibition at 1 µM [1, 3]: 7%; inhibition at 1 µM [1, 4]: 12%; inhibition at 1 µM [1, 5]: 7%

Q: `O=C1c2cc(-c3ccc(C(F)(F)F)cc3)ccc2OCN1Cc1ccccn1` [VIII-1, 3-(pyridin-2-ylmethyl)-6-(4-(trifluoromethyl)phenyl)-2H-benzo[e][1,3]oxazin-4(3H)-one] was tested. Which inhibition at 1 µM [1, 2] did it give?
A: 35%

Q: And the inhibition at 1 µM [1, 3]?
A: 26%

Q: And the inhibition at 1 µM [1, 4]?
A: 35%

Q: And the inhibition at 1 µM [1, 5]?
A: 26%

Q: For `COc1cc(OC)nc(Cn2ncc3ccc(-c4ccc(OC(F)(F)F)cc4)cc3c2=O)n1` [III-19, 2-((4,6-dimethoxypyrimidin-2-yl)methyl)-7-(4-(trifluoromethoxy)phenyl)phthalazin-1 (2H)-one], which inhibition at 1 µM [1, 2] is on record?
A: 14%

Q: What about the inhibition at 1 µM [1, 3] of the same compound?
A: 19%

Q: What about the inhibition at 1 µM [1, 4] of the same compound?
A: 14%

Q: And the inhibition at 1 µM [1, 5]?
A: 19%

Q: Which results are given for `O=c1c2cc(-c3ccc(OC(F)(F)F)cc3)ccc2nnn1CCc1ccncn1` [II-17, 3-(2-(pyrimidin-4-yl)ethyl)-6-(4-(trifluoromethoxy)phenyl)benzo[d][1,2,3]triazin-4(3H)-one]?
A: inhibition at 1 µM [1, 2]: 11%; inhibition at 1 µM [1, 3]: 7%; inhibition at 1 µM [1, 4]: 11%; inhibition at 1 µM [1, 5]: 7%

Q: What does the source list for `O=c1c2cc(-c3ccc(OC(F)(F)F)cc3)ccc2nnn1CCc1ncccn1` [II-18, 3-(2-(pyrimidin-2-yl)ethyl)-6-(4-(trifluoromethoxy)phenyl)benzo[d][1,2,3]triazin-4(3H)-one]?
A: inhibition at 1 µM [1, 2]: 15%; inhibition at 1 µM [1, 3]: 13%; inhibition at 1 µM [1, 4]: 15%; inhibition at 1 µM [1, 5]: 13%

Q: With `O=c1c2cc(-c3ccc(OC(F)(F)F)cc3)ccc2cnn1CCn1cccn1` [III-9, 2-(2-(1H-pyrazol-1-yl)ethyl)-7-(4-(trifluoromethoxy)phenyl)phthalazin-1(2H)-one] as the compound, how does the inhibition at 1 µM [1, 2] read?
A: 15%

Q: What about the inhibition at 1 µM [1, 3] of the same compound?
A: 15%

Q: What about the inhibition at 1 µM [1, 4] of the same compound?
A: 15%

Q: What about the inhibition at 1 µM [1, 5] of the same compound?
A: 15%

Q: Which results are given for `O=C(c1ncccn1)N1CCc2ccc(-c3ccc(C(F)(F)F)cc3)cc2C1` [IX-7, pyrimidin-2-yl(7-(4-(trifluoromethyl)phenyl)-3,4-dihydroisoquinolin-2(1H)-yl)methanone]?
A: inhibition at 1 µM [1, 2]: 12%; inhibition at 1 µM [1, 3]: 17%; inhibition at 1 µM [1, 4]: 12%; inhibition at 1 µM [1, 5]: 17%

Q: How did the inhibition at 1 µM [1, 2] turn out when `Cc1noc(Cn2nnc3ccc(-c4ccc(OC(F)(F)F)cc4)cc3c2=O)n1` [II-3, 3-((3-methyl-1,2,4-oxadiazol-5-yl)methyl)-6-(4-(trifluoromethoxy)phenyl)benzo[d][1,2,3]triazin-4(3H)-one] was run?
A: 19%

Q: And the inhibition at 1 µM [1, 3]?
A: 10%

Q: And the inhibition at 1 µM [1, 4]?
A: 19%

Q: What about the inhibition at 1 µM [1, 5] of the same compound?
A: 10%

Q: Which results are given for `O=C1c2cc(-c3ccc(OC(F)(F)F)cc3)ccc2OCN1Cc1ncccn1` [VIII-20, 3-(pyrimidin-2-ylmethyl)-6-(4-(trifluoromethoxy)phenyl)-2H-benzo[e][1,3]oxazin-4(3H)-one]?
A: inhibition at 1 µM [1, 2]: 27%; inhibition at 1 µM [1, 3]: 23%

Q: How did the inhibition at 1 µM [1, 2] turn out when `O=c1c2cc(-c3ccc(OC(F)(F)F)cc3)ccc2nnn1Cc1noc(-c2ccccn2)n1` [II-54, 3-((5-(pyridin-2-yl)-1,2,4-oxadiazol-3-yl)methyl)-6-(4-(trifluoromethoxy)phenyl)benzo[d][1,2,3]triazin-4(3H)-one] was run?
A: 5%

Q: What about the inhibition at 1 µM [1, 3] of the same compound?
A: 8%

Q: What about the inhibition at 1 µM [1, 4] of the same compound?
A: 5%

Q: What about the inhibition at 1 µM [1, 5] of the same compound?
A: 8%

Q: With `O=c1c2cc(-c3ccc(OC(F)(F)F)cc3)ccc2nnn1Cc1noc(C2CC2)n1` [II-14, 3-((5-cyclopropyl-1,2,4-oxadiazol-3-yl)methyl)-6-(4-(trifluoromethoxy)phenyl)benzo[d][1,2,3]triazin-4(3H)-one] as the compound, how does the inhibition at 1 µM [1, 2] read?
A: 7%

Q: What about the inhibition at 1 µM [1, 3] of the same compound?
A: 1%

Q: What about the inhibition at 1 µM [1, 4] of the same compound?
A: 7%

Q: What about the inhibition at 1 µM [1, 5] of the same compound?
A: 1%

Q: And the “area under curve (AUC) for the ST segment height reduced (vs. control)” value (anesthetized rabbits; 0.3 μM plasma concentration)?
A: 19%

Q: And the “area under curve (AUC) for the ST segment height reduced (vs. control)” value (anesthetized rabbits; 0.7 μM plasma concentration)?
A: 75%

Q: What about the “effect on blood pressure (BP), heart rate (HR) and ECG intervals prior to the ischemia” value (anesthetized rabbits; at the plasma concentration levels studied) of the same compound?
A: no significant effect

Q: What about the “ischemia-induced ST elevation” value (anesthetized rabbits; iv bolus 0.1, 0.2 and 0.4 mg/kg) of the same compound?
A: dose-dependently prevented the ischemia-induced ST elevation

Q: What does the source list for `O=c1c2cc(-c3ccc(OC(F)(F)F)cc3)ccc2nnn1CC1(CN2CCOCC2)CC1` [II-40, 3-((1-(morpholinomethyl)cyclopropyl)methyl)-6-(4-(trifluoromethoxy)phenyl)benzo[d][1,2,3]triazin-4(3H)-one]?
A: inhibition at 1 µM [1, 2]: 15%; inhibition at 1 µM [1, 3]: 29%; inhibition at 1 µM [1, 4]: 15%; inhibition at 1 µM [1, 5]: 29%
